According to ChEMBL document CHEMBL1151303, “New macrodiolide antibiotics, 11-O-monomethyl- and 11, 11'-O-dimethylelaiophylins, from Streptomyces sp. HKI-0113 and HKI-0114” (J Nat Prod, 1998):
In brackets after ≈: the same amount, converted by molar mass.

Key:
[1] = test system: Bacillus subtilis; assay: Antimicrobial activity against Bacillus subtilis ATCC 6633 by agar plate diffusion assay; format: functional
[2] = test system: L929; assay: Cytotoxicity against mouse L929 cells after 72 hrs by methylene blue staining; format: cell-based; conditions: L929, 72 h
[3] = test system: Staphylococcus aureus; assay: Antimicrobial activity against Staphylococcus aureus 134/94 by agar plate diffusion assay; format: functional
[4] = test system: Candida albicans; assay: Antimicrobial activity against Candida albicans by agar plate diffusion assay; format: functional
[5] = test system: HeLa; assay: Cytotoxicity against human HeLa cells by methylene blue staining; format: functional, cell-based
[6] = test system: Enterococcus faecium; assay: Antimicrobial activity against Enterococcus faecium 1528 by agar plate diffusion assay; format: functional
[7] = test system: K562; assay: Cytotoxicity against human K562 cells after 72 hrs; format: functional, cell-based; conditions: K562, 72 h
[8] = test system: Mycobacterium sp.; assay: Antimicrobial activity against Mycobacterium sp. SG 987 by agar plate diffusion assay; format: functional

With `CC[C@@H]1[C@@H](C)O[C@@](OC)([C@@H](C)[C@H](O)[C@H](C)[C@H]2OC(=O)/C=C/C=C/[C@H](C)[C@@H]([C@@H](C)[C@@H](O)[C@H](C)[C@@]3(OC)C[C@@H](O[C@H]4C[C@H](O)[C@H](O)[C@H](C)O4)[C@H](CC)[C@@H](C)O3)OC(=O)/C=C/C=C/[C@@H]2C)C[C@H]1O[C@H]1C[C@H](O)[C@H](O)[C@H](C)O1` the “inhibition zone (IZ)” value [1] was 23 mm, the IC50 [2] was 2.4 µg/mL (≈ 2.28 µM) and the “inhibition zone (IZ)” value [3] was 13 mm. For the same compound, the “inhibition zone (IZ)” value [4] was 0 mm, the IC50 [5] was 2.2 µg/mL (≈ 2.09 µM) and the “inhibition zone (IZ)” value [6] was 17 mm. The IC50 [7] was 1.3 µg/mL (≈ 1.23 µM) and the “inhibition zone (IZ)” value [8] was 15 mm.
